Test results as given in the supplement of paper PMC10307832.

Columns and labels:
Assay in all cases: relative viability (nuclei count vs DMSO), 5 days (fraction); higher = more cells survive
[1] = compound: Cc1ccc(C(=O)N(CCCN)[C@@H](c2nc3cc(Cl)ccc3c(=O)n2Cc2ccccc2)C(C)C)cc1 [Ispinesib] + Cc1nc(Nc2ncc(C(=O)Nc3c(C)cccc3Cl)s2)cc(N2CCN(CCO)CC2)n1 [Dasatinib] (partner 0.075 µM)
How it was run: (§1)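 Cells from lung cancer lines were seeded into 1536-well plates and, one day later, dosed by pin tool. Treatments were either a single drug or a fixed dose of an anchor drug with five library-drug doses (not always all listed) in √10 steps. After 5 days, nuclei were stained in a one-step fixation (final 0.05% Triton X-100, 1% formaldehyde, 1 ug/ml Hoechst) and counted on 4× images, and relative viability is the treated-to-vehicle nuclei ratio, as the median of duplicate plates.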

[2] = compound: C[C@]1(O)C[C@@H](c2nc(-c3ccc4ccc(-c5ccccc5)nc4c3)c3c(N)nccn32)C1 [Linsitinib] + O=C(c1cc(Cc2n[nH]c(=O)c3ccccc23)ccc1F)N1CCN(C(=O)C2CC2)CC1 [Olaparib] (partner 8 µM)
How it was run: as §1

[3] = compound: C[C@]1(O)C[C@@H](c2nc(-c3ccc4ccc(-c5ccccc5)nc4c3)c3c(N)nccn32)C1 [Linsitinib] + Cc1cc(Nc2cc(N3CCN(C)CC3)nc(Sc3ccc(NC(=O)C4CC4)cc3)n2)n[nH]1 [Tozasertib] (partner 0.1 µM)
How it was run: as §1

[4] = compound: Cc1ccc(C(=O)N(CCCN)[C@@H](c2nc3cc(Cl)ccc3c(=O)n2Cc2ccccc2)C(C)C)cc1 [Ispinesib] + CCNC(=O)c1noc(-c2cc(C(C)C)c(O)cc2O)c1-c1ccc(CN2CCOCC2)cc1 [Luminespib] (partner 0.01 µM)
How it was run: as §1

Cell Line	relative viability ([1]; first compound 0.001 µM)	relative viability ([1]; first compound 0.003162 µM)	relative viability ([1]; first compound 0.01 µM)	relative viability ([1]; first compound 0.03162 µM)	relative viability ([1]; first compound 0.1 µM)	relative viability ([2]; first compound 0.01 µM)	relative viability ([2]; first compound 0.03162 µM)	relative viability ([2]; first compound 0.1 µM)	relative viability ([2]; first compound 0.3162 µM)	relative viability ([2]; first compound 1 µM)	relative viability ([3]; first compound 0.01 µM)	relative viability ([3]; first compound 0.03162 µM)	relative viability ([3]; first compound 0.1 µM)	relative viability ([3]; first compound 1 µM)	relative viability ([4]; first compound 0.001 µM)	relative viability ([4]; first compound 0.003162 µM)	relative viability ([4]; first compound 0.01 µM)	relative viability ([4]; first compound 0.03162 µM)	relative viability ([4]; first compound 0.1 µM)	relative viability ([3]; first compound 0.3162 µM)
LXF-289	0.308	0.215	0.197	0.209	0.0629	1.11	1.13	1.17	0.797	1.05	0.184	0.193	0.196	0.148	0.622	0.794	0.743	0.556	0.617	
LU99A	0.676	0.519	0.558	0.363	0.203	0.3	0.195	0.266		0.255	0.284	0.27	0.281	0.234	0.242	0.333	0.247	0.199	0.218	0.264
SW 1573	0.529	0.426	0.721	0.122	0.153	0.497	0.563	0.432	0.329	0.348	0.213	0.171	0.189	0.136	0.234	0.198	0.13	0.151	0.148	0.186
COR-L23	0.564	0.498	0.474	0.0917	0.172	0.375	0.292	0.346	0.299	0.29	0.196	0.207	0.396	0.152	0.805	0.815	0.824	0.356	0.215	0.174
NCI-H1755	0.391	0.453	0.387	0.352	0.237	0.893	0.887	0.9	0.699	0.753	0.585	0.587	0.569	0.514	0.292	0.641	0.423	0.315	0.441	0.375
LOU-NH91	0.591	0.608	0.592	0.519	0.206	0.911	0.841	0.941	0.857	0.903	0.705	0.642	0.708	0.594	0.332	0.311	0.394	0.25	0.297	0.531
EMC-BAC-2	0.354	0.236	0.351	0.257	0.19	0.478	0.601	0.47	0.348	0.37	0.294	0.271	0.291	0.255	0.797	1.32	1.36	1.13	0.6	0.206
ChaGo-K-1	0.584	0.605	0.643	0.668	0.226	0.426	0.404	0.401		0.365	0.208	0.184	0.221	0.2	0.727	0.712	0.82	0.639	0.492	0.227
